# Measured values published in US20090076130A1, “COMPOUNDS FOR THE INHIBITION OF HISTONE DEACETYLASE” (NATUREWISE BIOTECH & MEDICALS CORPORATION, priority 2007, published 2009).
# What was measured:
# [1] = tested on: cortical neurons; assay: Neurite outgrowth of cortical neurons from fetal rat neural stem cells; type: cell-based, Wistar rat; conditions: 0.63 μg/mL, 6 days, vs DMSO control
# Description: The growth medium for the NSCs (neural stem cells) and cortical neurons was prepared by adding penicillin G, streptomycin and 0.5 mM of L-glutamine into a B-27 supplemented neurobasal medium (Gibco). The unborn fetus was taken out of the fetal sac in the abdominal cavity of a 17-day pregnant Wistar rat under anesthesia. The cerebral tissue was removed from the fetus and treated with 0.1% trypsin solution at 25° C. for three minutes. After washing with PBS solution 3 times, the cells were dissociated by up and down mixing. The resulting solution was passed through a 70 μm Nylon cell strainer (Falcon) in order to obtain the filtrate that contained cerebral cells. The filtrate was centrifuged at 1000 rpm for 10 minutes and the supernatant was aspirated. The resulting pellet was resuspended in the growth medium prepared as stated above. The resulting suspension contained NSCs.
# The cells obtained from the suspension were cultivated in 6-well plates coated with 30 μg/ml of poly-D-lysine (Sigma) at the density of 75 cells/mm^2. The cells were cultured at 37° C., 5% CO2 and 95% relative humidity. The growth media contained 0.63 μg/mL of NBM-HD-1 and the growth media with 1 μl of DMSO was used as the control. […]
# After cultivation for 6 days, live cells were observed by microscope. The lengths of the neurites of the neurons in 6 different fields were measured and averaged. […]
# [2] = tested on: p21; assay: RT-PCR of p21 mRNA in MCF-7 cells; type: cell-based, human; conditions: different doses, 24 hours
# Description: The cell cycle related to p21 mRNA expression was examined by RT-PCR. The total RNAs were isolated from the treated MCF-7 cells and used in the RT reaction. cDNA (1 μl) was used as a template to amplify p21 gene by PCR. GAPDH was used as an internal control. […] In this experiment, MCF-7 cells were treated with different doses of NBM-HD-1 for 24 hours.
# [3] = tested on: rat C6 glioma cells; assay: Cell cycle / DNA content of C6 glioma cells by FACScan cytometry; type: cell-based; conditions: 0, 2.5, 5, 10 μg/mL, 72 hours, PI staining
# Description: 1×10^6 of rat C6 glioma cells were treated with various concentrations of NBM-HD-1 (0 μg/mL, 2.5 μg/mL, 5 μg/mL, and 10 μg/mL) for 72 hours. The treated cells were trysinized and collected. The cells were resuspended in 200 μL PBS and then fixed by adding 800 μL of cold 100% ethanol. The resulting cells were fixed overnight at −20°. The cell pellets were collected by centrifugation, resuspended in 1 mL of hypotonic buffer (0.5% Triton X-100 in PBS and 1 μg/mL RNase A), and incubated at 37° for 30 minutes. Then, 1 mL of PI solution (50 μg/mL) was added to the resulting cell pellets. The mixture was allowed to stand at 4° for 30 min. The DNA amounts of the cells were analyzed by FACScan Cytometry (Becton Dickinson) (see FIG. 2).
# [4] = tested on: GFAP; assay: GFAP expression in C6 glioma cells (immuno-fluorescent staining, RT-PCR); type: cell-based, rat
# Description: After the C6 glioma cells were incubated with 10 μg/mL NBM-HD-1 for 24 hours, they were fixed and analyzed by the traditional immuno-fluorescent staining method. Staining of glia was carried out by using glial-specific GFAP antibody (SIGMA) as the primary antibody and a fluorescence labeled rabbit immuno-globulin (SIGMA) as the secondary antibody to bind with the primary antibody. The cells which are GFAP-positive were excited by a specific light source to emit fluorescence. Also, the nuclei were stained with DAPI. […] In contrast with the control group, more GFAP proteins were detected in the photos of the cells being treated with 10 μg/mL of NBM-HD-1.
# The GFAP mRNA expression was examined by RT-PCR.
# [5] = tested on: human breast MCF-7 cancer cells; assay: Growth and morphology of breast cancer MCF-7 cells; type: cell-based
# Description: The breast cancer MCF-7 cells, were cultured in Dulbecco's modified Eagle's medium (DMEM; Gibco) supplemented with penicillin G, streptomycin sulphate, 0.5 mM of L-glutamine and 10% fetal bovine serum (FBS; Gibco) at 37° C., 5% CO2 and 95% relative humidity. The cells were seeded at a density of 3×10^5 per well of 6-well plates. After 24 hours, the cells were treated with different concentrations of compound NBM-HD-1 and 4 mM sodium butyrate being used as the positive control. The cells were observed after 48 hours and counted after 96 hours. […] In FIG. 8(A), after the cells were incubated with 2.5 μg/mL (FIG. 8(A)-b), 5 μg/mL (FIG. 8(A)-c) and 10 μg/mL (FIG. 8(A)-d) of NBM-HD-1 for 48 hours, the density of MCF-7 cells reduced dramatically in comparison with that of the control group (FIG. 8(A)-a). The morphology of the MCF-7 cells in the experimental group changed in comparison with that in the control group. […] The results of the cell counting (FIG. 8(B)) indicate that, similar to sodium butyrate, NBM-HD-1 inhibits cell growth.
# MCF-7 cancer cells were seeded at a density of 3×10^5 per well in 6-well plates. After 24 hours, the cells were treated with different concentrations of compound NBM-HD-2 and 4 mM sodium butyrate being used as the positive control. The cells were observed and counted after 72 hours. […] In FIG. 13(A), after the cells were incubated with 2.5 μg/mL (FIG. 13(A)-c), 5 μg/mL (FIG. 13(A)-d), 7.5 μg/mL (FIG. 13(A)-e) and 10 μg/mL (FIG. 13(A)-f) of NBM-HD-2 for 72 hours, the density of MCF-7 cells reduced dramatically in comparison with that of the control group (FIG. 13(A)-a). The morphology of the MCF-7 cells in the experimental group changed in comparison with that in the control group.
# MCF-7 cancer cells were seeded at a density of 3×10^5 per well of 6-well plates. After 24 hours, the cells were treated with different concentrations of compound NBM-HD-3 and 4 mM sodium butyrate, which was being used as the positive control. The cells were observed and counted after 72 hours. […] In FIG. 14(A), after the cells were incubated with 2.5 μg/mL (FIG. 14(A)-c), 5 μg/mL (FIG. 14(A)-d), 7.5 μg/mL (FIG. 14(A)-e) and 10 μg/mL (FIG. 14(A)-f) of NBM-HD-3 for 72 hours, the density of MCF-7 cells reduced dramatically in comparison with that of the control group (FIG. 14(A)-a). The morphology of the MCF-7 cells in the experimental group changed in comparison with that in the control group. […] The results of the cell counting (FIG. 14(B)) indicate that, similar to sodium butyrate, NBM-HD-3 inhibits cell growth.
compound,measurement,setting,value
COc1cc2c(c(OC)c1CCC(C)(C)O)C(=O)C[C@@H](c1ccc(OC)c(OC)c1C/C=C(\C)CCCC(C)(C)O)O2 [NBM-HD-1],neurite outgrowth (length of the neurites),[1],could promote the neurite outgrowth
same,p21 mRNA expression,[2],induced the expression of p21 in a dose-dependent manner
same,cell cycle of C6 glioma cells,[3],cell cycle arrest on the G0/G1 phase in a dose-dependent manner
same,GFAP expression (immuno-fluorescent staining),"[4]; 10 μg/mL, 24 hours",can induce the GFAP expression of C6 glioma cancer cells
same,GFAP mRNA expression,[4]; RT-PCR,increased in a dose-dependent manner
same,morphology of MCF-7 cancer cells,"[5]; 2.5, 5, 10 μg/mL, 48 hours",change their morphology
same,growth of MCF-7 cancer cells,"[5]; NBM-HD-1 2.5, 5, 10 μg/mL or 4 mM sodium butyrate, observed after 48 hours, counted after 96 hours",can inhibit the growth of MCF-7 cancer cells in a dose-dependent manner
